Results taken from patent publication US8703785B2, “2-aminopyrimidin-4-one and 2-aminopyridine derivatives both having BACE1-inhibiting activity” (Shionogi & Co., Ltd., priority 2008, dated 2014).

How the values were obtained:
Recombinant human BACE-1 = Recombinant human BACE-1 (Homo sapiens (Human), UniProt P56817); assay: Measurement of BACE1 inhibitory activity; format: biochemical; settings: Recombinant human BACE-1 7.4 nM, substrate peptide 18 nM, pH 5.0, 3 hours at 30° C.; read-out: IC50 (BACE1 enzyme activity)
Recombinant human BACE-1, sequence (P56817 46-501): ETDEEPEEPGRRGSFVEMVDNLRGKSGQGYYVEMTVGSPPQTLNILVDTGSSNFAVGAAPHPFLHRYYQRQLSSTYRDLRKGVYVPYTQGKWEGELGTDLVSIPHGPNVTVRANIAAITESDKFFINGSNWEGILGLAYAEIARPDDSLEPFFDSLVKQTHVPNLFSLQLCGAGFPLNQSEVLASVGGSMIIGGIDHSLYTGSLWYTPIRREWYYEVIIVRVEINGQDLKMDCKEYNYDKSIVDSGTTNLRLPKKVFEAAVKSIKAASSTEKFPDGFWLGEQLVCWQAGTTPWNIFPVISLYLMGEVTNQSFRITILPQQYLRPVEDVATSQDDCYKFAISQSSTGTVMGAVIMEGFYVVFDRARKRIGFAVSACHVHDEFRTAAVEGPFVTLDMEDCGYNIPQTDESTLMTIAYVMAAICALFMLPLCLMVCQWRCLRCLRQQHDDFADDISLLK
Procedure: First, 48.5 μl portions of a solution of substrate peptide (Biotin-XSEVNLDAEFRHDSGC-Eu: X=ε-amino-n-capronic acid, Eu=Europium cryptate) were put into respective wells of a 96-well half area microplate (black microplate, Costar). Then, 0.5 μl of a test compound (DMSO (dimethyl sulfoxide) solution) and 1 μl of Recombinant human BACE-1 (R&D systems) were added to each of the wells, and they were reacted for 3 hours at 30° C. […] The final concentration of the substrate peptide was set to 18 nM, and the final concentration of Recombinant human BACE-1 was set to 7.4 nM. The reaction buffer used was a sodium acetate buffer (50 mM sodium acetate, pH 5.0, 0.008% Triton X-100). After the reaction finished, 50 μl portions of a 8.0 μg/ml solution of Streptavidin-XL665 (CIS bio international) in a phosphate buffer (150 mM K2HPO4—KH2PO4, pH 7.0, 0.008% Triton X-100, 0.8 M KF) were added to the respective wells, and the plate was left standing for 1 hour at 30° C. Thereafter, the fluorescence intensity (excitation wavelength: 320 nm, measurement wavelength: 620 nm and 665 nm) was measured with a Wallac 1420 multilabel counter (Perkin Elmer life sciences). The enzyme activity was determined from the count rate at each measurement wavelength (10000× Count 665/Count 620), and the amount needed to inhibit the enzyme activity by 50% (IC50) was calculated.

CYP3A4 = CYP3A4 (Homo sapiens (Human), UniProt P08684); assay: CYP3A4 fluorescent MBI test; format: in vitro ADME; settings: E. coli-expressing CYP3A4, 7-BFC substrate, pre-reaction 0 or 30 minutes
CYP3A4, sequence (P08684 whole entry): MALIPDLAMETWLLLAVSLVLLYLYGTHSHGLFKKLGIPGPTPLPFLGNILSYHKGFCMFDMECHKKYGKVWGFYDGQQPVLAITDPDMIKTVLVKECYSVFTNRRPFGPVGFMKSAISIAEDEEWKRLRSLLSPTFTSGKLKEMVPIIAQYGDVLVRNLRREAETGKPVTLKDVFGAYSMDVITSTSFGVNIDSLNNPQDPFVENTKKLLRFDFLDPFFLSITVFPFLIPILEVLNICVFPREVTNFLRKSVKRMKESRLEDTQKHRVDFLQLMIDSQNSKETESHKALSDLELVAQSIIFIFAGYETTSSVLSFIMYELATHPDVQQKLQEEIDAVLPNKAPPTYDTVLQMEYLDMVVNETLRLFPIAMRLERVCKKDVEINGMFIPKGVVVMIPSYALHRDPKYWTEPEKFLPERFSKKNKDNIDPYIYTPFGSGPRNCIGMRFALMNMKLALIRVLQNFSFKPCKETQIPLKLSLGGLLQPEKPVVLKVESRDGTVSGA
Procedure: The CYP3A4 fluorescent MBI test is a test to examine enhancement of CYP3A4 inhibition by metabolic reaction of the compound. Here, E. coli-expressing CYP3A4 was used as an enzyme, and a reaction wherein 7-benzyloxy trifluoromethylcumarin (7-BFC) was debenzylated by the CYP3A4 enzyme into a fluorescent metabolite 7-hydroxytrifluoromethylcumarin (HFC) was employed as an indicator reaction. The reaction conditions were as follows.
Substrate: 5.6 μmol/L 7-BFC
Pre-reaction time: 0 or 30 minutes
Reaction time: 15 minutes
Reaction temperature: 25° C. (room temperature)
CYP3A4 content (E. coli-expressing enzyme): 62.5 pmol/mL at pre-reaction, […] at reaction (10-fold diluted) […]
The enzyme and a test compound solution were added to a K-Pi buffer (pH 7.4) in the aforementioned amounts for the pre-reaction so that a pre-reaction solution was prepared, and this solution was put into a 96-well microplate. […] With respect to each of the microplates on which the indicator reaction was performed, the fluorescence value of the metabolite 7-HFC was measured with a fluorescence plate reader (Ex=420 nm, Em=535 nm). […] The remaining activity (%) at each concentration after adding the test compound solution was calculated, and the IC50 value was calculated from the concentration and inhibition percentage by inverse estimation with the logistic model. […]

[1] = test system: Neuroblastoma SH-SY5Y cells (SH/APPwt) with human wild-type β-APP excessively expressed; assay: Measurement of β-amyloid (Aβ) production inhibitory effect in cell; format: cell-based; settings: 24 hours incubation, Amyloid-β 1-40 HTRF
Procedure: Neuroblastoma SH-SY5Y cells (SH/APPwt) with human wild-type β-APP excessively expressed therein were prepared at 8×10^5 cells/mL, and 150 μl portions thereof were inoculated into respective wells of a 96-well culture plate (Falcon). The cells were cultured for 2 hours at 37° C. in a 5% gaseous carbon dioxide incubator. […] Namely, the final DMSO concentration was 1%, and the amount of the cell culture was 200 μl. After the incubation was performed for 24 hours from the addition of the test compound, 100 μl of the culture supernatant was collected from each fraction. The amount of the Aβ in each fraction was measured. The Aβ amount was measured as follows. 10 μl of a homogeneous time resolved fluorescence (HTRF) measurement reagent (Amyloid-β 1-40 peptide; IBA Molecular Holding, S.A.) and 10 μl of the culture supernatant were put into a 384-well half area microplate (black microplate, Costar) and mixed with each other, and then left standing overnight at 4° C. while the light was shielded. Then, the fluorescence intensity (excitation wavelength: 337 nm, measurement wavelength: 620 nm and 665 nm) was measured with a Wallac 1420 multilabel counter (Perkin Elmer life sciences).

hERG (IKr) = hERG (IKr) (Homo sapiens (Human), UniProt Q12809); assay: hERG test; format: cell-based; settings: HEK293 cells expressing hERG channel, pH 7.4, HEK293 cell expressing hERG, compound concentration 5 μM, read-out: inhibitory percentage (IKr maximum tail current)
hERG (IKr), sequence (Q12809 whole entry): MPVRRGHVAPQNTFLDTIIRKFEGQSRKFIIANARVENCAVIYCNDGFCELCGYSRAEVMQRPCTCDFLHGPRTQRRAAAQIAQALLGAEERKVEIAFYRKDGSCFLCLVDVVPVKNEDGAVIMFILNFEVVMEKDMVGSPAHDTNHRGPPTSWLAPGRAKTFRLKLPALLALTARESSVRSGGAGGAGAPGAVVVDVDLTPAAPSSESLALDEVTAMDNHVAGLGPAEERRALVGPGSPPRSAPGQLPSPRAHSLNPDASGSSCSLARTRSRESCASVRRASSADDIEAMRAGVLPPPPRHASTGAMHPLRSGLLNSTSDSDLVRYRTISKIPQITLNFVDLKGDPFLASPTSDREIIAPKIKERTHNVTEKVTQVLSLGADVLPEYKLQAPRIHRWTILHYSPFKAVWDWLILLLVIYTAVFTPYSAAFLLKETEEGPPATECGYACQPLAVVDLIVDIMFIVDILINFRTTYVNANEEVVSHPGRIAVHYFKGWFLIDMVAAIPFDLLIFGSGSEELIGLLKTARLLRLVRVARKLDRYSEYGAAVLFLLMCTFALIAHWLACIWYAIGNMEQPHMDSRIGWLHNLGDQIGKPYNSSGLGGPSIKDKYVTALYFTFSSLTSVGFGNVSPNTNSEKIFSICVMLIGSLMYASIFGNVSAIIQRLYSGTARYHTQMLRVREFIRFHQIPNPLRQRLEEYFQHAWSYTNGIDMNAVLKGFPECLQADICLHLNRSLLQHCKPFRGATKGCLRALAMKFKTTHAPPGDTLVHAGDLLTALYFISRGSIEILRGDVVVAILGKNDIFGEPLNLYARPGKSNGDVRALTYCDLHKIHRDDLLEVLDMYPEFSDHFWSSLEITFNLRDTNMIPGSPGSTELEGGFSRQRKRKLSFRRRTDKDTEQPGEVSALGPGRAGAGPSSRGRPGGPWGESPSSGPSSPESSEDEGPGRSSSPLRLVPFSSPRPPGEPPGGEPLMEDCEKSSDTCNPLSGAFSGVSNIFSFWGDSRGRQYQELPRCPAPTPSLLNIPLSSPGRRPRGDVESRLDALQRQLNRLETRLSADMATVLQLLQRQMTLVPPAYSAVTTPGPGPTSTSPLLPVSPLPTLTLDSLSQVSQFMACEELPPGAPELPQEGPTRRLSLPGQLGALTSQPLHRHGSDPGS
Text: For the purpose of risk assessment for QT prolongation on an electrocardiogram, the action on delayed rectifier K+ current (IKr) which plays an important role on a process of ventricular repolarization was studied using a HEK293 cell with a human ether-a-go-go related gene (hERG) channel expressed therein. A cell was maintained at a membrane potential of −80 mV, and then +40 mV of a depolarizing stimulus was applied to the cell for 2 seconds and further −50 mV of a repolarizing stimulus was applied thereto for 2 seconds by a whole-cell patch clamp technique with a fully-automatic patch clamp system (PatchXpress 7000A, Axon Instruments Inc.), and the induced IKr was recorded. […] The absolute value of the maximum tail current was determined from the obtained IKr with an analysis software (DataXpress ver. 1, Molecular Devices Corporation) based on a current value at a maintained membrane potential. Further, an inhibitory percentage relative to the maximum tail current before application of the test compound was calculated, and influence of the test compound on IKr was evaluated in comparison with the medium application group (0.1% dimethyl sulfoxide solution). […]

Q: Which IC50 (Recombinant human BACE-1) does the source give for COCCOc1cnc(C(=O)Nc2cccc(C3(C)CC(=O)N(C)C(N)=N3)c2)cn1 (stereo not shown) [Compound 40] here?
A: Its IC50 is 14 nM.

Q: What about the IC50 difference without vs with pre-reaction (CYP3A4) of the same compound?
A: Its IC50 difference without vs with pre-reaction is ≤ 3000 nM.

Q: And the IC50 [1]?
A: Its IC50 is 0.9 nM.

Q: What about the inhibition at 10 min, 5 µM (hERG (IKr)) of the same compound?
A: The inhibition at 10 min, 5 µM was 4.1%.
